Assay results: paper PMC4020785 (PLoS ONE, 2014)

Legend:
[1] = parameters: method as in earlier work; conditions: dogs, oral dosing; ref personal communication from Aurigon Life Science – Tutzing, Germany; cited from earlier work
[2] = system: HIV LTR in J-Lat clones; assay: LTR-driven GFP expression in J-Lat clones; assay type: cell-based, HIV-1
Description: J-Lat cells are Jurkat cells stably transfected by an HIV genome whose nef sequence was replaced by the GFP gene. Also, a frameshift mutation was introduced to the env gene to prevent virus spread. […] To test the ISDs, a million cells of each clone were treated with different concentrations of each compound (ING-A, ING-B, ING-C, prostratin and PMA) at 37°C. TNF-α (10 ng/mL) was used as a positive control. After 48 h, cells were collected, washed with saline solution (PBS) and GFP expression was evaluated in a FACScalibur cytometer (BD Biosciences). Data were analyzed with Cell Quest Pro software (BD Biosciences).

[3] = system: HIV-1 p24 in J-Lat clones; assay: HIV-1 p24 production in J-Lat clones (ELISA); assay type: cell-based; conditions: J-Lat clones, GFP and p24 taken together
Description: ACH-2 and J1.1 are clonal cell lines derived from CEM [52] and Jurkat cells, respectively, after infection with HIV-1. U1 cells were derived from the human promonocyte cell line U937 and chronically infected with HIV-1 [54]. Each cell line (1×10^6 cells) was incubated in the presence of 1 µM of diterpenes (ING-A, ING-B, ING-C, prostratin and PMA) or 10 ng/mL TNF-α for 48 h at 37°C. After incubation, cells were centrifuged and supernatants were collected for the quantitation of gag p24 antigen by ELISA, following the protocol described by the manufacturer (Perkin Elmer).
To assess whether the GFP expression levels induced by ISDs in J-Lats led to viral production, all five clones were stimulated with 1 µM of each compound for 48 h and production of HIV-1 p24 was measured in the culture supernatant by ELISA. Levels of p24 were proportional to GFP expression in clones 6.3 and 9.2, whereas levels in clone 8.4 were lower when compared to GFP (Figure 3A).

[4] = system: J-Lat (clones 9.2 and 10.6); assay: Cell viability of J-Lat clones 9.2 and 10.6 (CellTiter-blue); assay type: cell-based; conditions: J-Lat clones 9.2 and 10.6, 48 h
Description: Cytotoxicity of ISDs was evaluated in J-Lat (clones 9.2 and 10.6) and PHA-activated human PBMCs. […] Cell viability was determined using the CellTiter-blue fluorescence Cell Viability Assay (Promega) following the manufacturer's instruction.

[5] = system: HIV-1 clone ZM247Fv-1 (subtype C); assay: HIV-1 ZM247Fv-1 (subtype C) infection of human PBMCs, Cell Titer Blue readout; assay type: cell-based
Description: (§1) Human PMBCs were incubated with 100 U recombinant IL-2 (Sigma-Aldrich) and 5 µg/mL phytohemagglutinin-P (PHA-P) (Difco) for 5 days at 37°C. MT-4 cells (1×10^6) or treated PBMCs (1.2×10^8) were infected with HIV-1 clone NL-4.3 or ZM247Fv-1 (MOI of 0.001) by spinoculation (1200 g at room temperature for 2 h). Uninfected cells were used as negative control and were also subjected to the spinoculation process. After spinoculation, supernatants were discarded and cells were resuspended in 10 mL of R10. Cells from each condition were then added to wells (96-well plate) containing serial dilutions of each ISD. For MT-4 cells, each dilution was done in sextuplicates and, for PBMCs, in triplicates. Cells were also incubated with different concentrations of ZDV as positive control. After 5 days in culture, Cell Titer Blue was added to each well and cells were incubated for additional 24 h. The median effective concentration for each drug is defined as EC50. In parallel with the infectivity assay, the same cell types were treated with different concentrations of drugs to determine their cytotoxicity, following the protocol described above. Drug concentration that results in a 50% decrease in viable cells is defined as the CC50 for each compound. EC50 was calculated according to Spearman-Karber and therapeutic index was defined by the ratio between CC50 and EC50 [55].
(§2) All statistical analyses were performed using program GraphPism version 6.0. Titrations for TCID50 infectivity were calculated by the Spearman-Karber method. Dose response curves to ISDs with HIV-1 subtype B and C were done using non-linear regression and were fit to the Hill equation.

[6] = system: CD4, CXCR4, CCR5 on CD4+ T lymphocytes; assay: Surface CD4, CXCR4, CCR5 expression in CD4+ T lymphocytes (cytometry); assay type: cell-based, human; conditions: cells from three donors, different concentrations, 24 h
Description: For analysis of cell surface marker expression, MT-4 cells and bead-selected CD4+ T cells (described above) were incubated with 1 µM of each compound (ING-A, ING-B, ING-C, prostratin, PMA, and bryostatin-1) at 37°C for 48 h. After incubation, cells were washed with PBS and incubated for 20 min at room temperature with antibodies against CD3-Brilliant Violet 510 (clone OKT3 – Biolegend), CD4-Qdot 655 (clone 53.5 - Life Technologies), CXCR4-PE (clone 1265 - BD Biosciences), CCR5-PerCP-Cy5.5 (clone 3A9 - BD Biosciences), CD69-Pacific Blue (clone FN50 – BD Biosciences), CD38-FITC (clone AT-1 – Stem Cell Technologies), CD25-APC (clone 2A3 – BD Biosciences), HLA-DR-Qdot 605 (clone TÜ36 – Life Technologies) and a marker for annexin V-FITC (Life Technologies). Cells (both MT-4 cells and CD4+ T cells) were initially incubated for 2 h with different PKC inhibitors (GÖ6983, GÖ6976 or RO-31-8220). Then, ING-B, prostratin or PMA at 1 µM or TNF-α at 10 ng/mL were added to each condition and incubation was carried out for 24 h at 37°C. Similar protocol was used for the analysis of PKC inhibitors in J-Lat clones 9.2 and 10.6. GFP expression, surface marker expression and activation marker were evaluated on a LSR Fortessa cytometer (BD Biosciences). Data analysis was performed using FlowJo software (Tree Star).

[7] = system: HIV-1 clone NL4.3 (subtype B); assay: HIV-1 NL4.3 (subtype B) infection of MT-4 cells, Cell Titer Blue readout; assay type: cell-based
Description: as §1, §2

[8] = system: MT-4 cells; assay: Cell cycle analysis (propidium iodide) in MT-4 cells; assay type: cell-based; conditions: 48 h
Description: Human PBMCs and MT-4 cells were incubated at 37°C with different concentrations of ING-B for 48 h. After incubation, cells were collected, washed twice with PBS, and stained with 200 µl of propidium iodide (50 µg/mL, diluted in Hanks buffer with 1 mg/mL RNAse and 0.2% Triton X-100) for 15 min on ice before cytometry analysis.

[9] = parameters: method as in personal communication from Bioqual – Rockville, USA; conditions: Rhesus macaques, orally treated at similar dose; ref personal communication from Bioqual – Rockville, USA; cited from earlier work

SMILES: CCCCCC(=O)O[C@H]1C(C)=C[C@]23C(=O)[C@@H](C=C(CO)[C@@H](O)[C@]12O)[C@H]1[C@@H](C[C@H]3C)C1(C)C [ING-B, ingenol-3-hexanoate]
- no-observed-adverse-effect level [1]: 4 mg/kg/day
- GFP induction compared with other compounds ([2]; J-Lat clone 10.6, 48 h): slightly more active than ING-A, ING-C and prostratin
- levels of GFP expression, rank order ([2]; J-Lat clones 9.2 and 10.6, 48 h, all concentrations tested): PMA = ING-B > ING-A = ING-C > prostratin
- HIV-LTR activation, overall comparison [3]: equivalent levels to PMA and TNF-α
- cell viability / toxicity [4]: lower toxicity when compared to its counterparts
- TI (CC50/EC50) ([5]; Human PBMC, Subtype C (R5)): 851
- EC50 ([5]; Human immunodeficiency virus 1, PBMC): 47 nM
- downregulation of CD4, CCR5 and CXCR4, dose dependence [6]: dose dependent
- EC50 ([7]; Human immunodeficiency virus 1, MT4): 22 nM
- TI (CC50/EC50) ([7]; MT-4 cells, Subtype B (X4)): 1272
- cell cycle phases [8]: did not alter cell cycle phases
- side effects [9]: negligible side effects
